Reference: ChEMBL document CHEMBL4613212, “Insights of synthetic analogues of anti-leprosy agents” (Bioorg Med Chem, 2019)
≈ marks a conversion by molar mass, not a printed value.

System: Mycobacterium tuberculosis
Assay: Antimycobacterial activity against Mycobacterium bovis BCG Pasteur incubated for 10 days by spectrophotometric based assay
Assay type: functional
Conditions: variant bovis BCG, 240 h

| Compound | MIC99 |
| --- | --- |
| O=C1c2ccccc2C(=O)N1c1ccc(S(=O)(=O)Nc2ccncn2)cc1 | 1900 µM (≈ 723 µg/mL) |
| CCCCCCCCC(CCC1CCCO1)C(=O)O (stereo not given) | 2500 µM (≈ 676 µg/mL) |
| O=C1c2ccccc2C(=O)N1c1ccc(S(=O)(=O)Nc2cnccn2)cc1 | 1000 µM (≈ 380 µg/mL) |
| O=C1c2ccccc2C(=O)N1c1ccc(S(=O)(=O)Nc2ccccn2)cn1 | 1900 µM (≈ 723 µg/mL) |
| CCCOCOCCC(CCC1CCCC1)C(=O)O (stereo not given) | 500 µM (≈ 136 µg/mL) |
| CCCCCCCCC(COC1CCCC1)C(=O)O (stereo not given) | 2200 µM (≈ 595 µg/mL) |
| O=C1c2ccccc2C(=O)N1c1cnc(S(=O)(=O)Nc2ccccn2)cn1 | 900 µM (≈ 343 µg/mL) |
| O=C(O)C(CCCCCCCF)CCC1CCCC1 (stereo not given) | 1600 µM (≈ 436 µg/mL) |
| CCCCCCCCC(CCC1CCCC1)C(=O)OC (stereo not given) | 1500 µM (≈ 424 µg/mL) |
| CCCCCCOCC(CCC1CCCC1)C(=O)O (stereo not given) | 1100 µM (≈ 297 µg/mL) |
| CCCCCCCCC(CCC1CCCC1)C(N)=O (stereo not given) | 5400 µM (≈ 1440 µg/mL) |
| CCCCCCCCC(CCC1=CCC=C1)C(=O)O (stereo not given) | 6000 µM (≈ 1590 µg/mL) |
| CCCCCCCCC(CCC1CCCC1)C(=O)NCC (stereo not given) | 4400 µM (≈ 1300 µg/mL) |
| CCCCCCCCC(CCC1CCCS1)C(=O)O (stereo not given) | 5400 µM (≈ 1550 µg/mL) |
| CCCCCCCCC(CCC1CCCN1)C(=O)O (stereo not given) | 5100 µM (≈ 1370 µg/mL) |
